Experimental data taken from article PMC8157947, “Peptidic boronic acids are potent cell-permeable inhibitors of the malaria parasite egress serine protease SUB1” (Proceedings of the National Academy of Sciences of the …, 2021).

Columns and labels:
[1] = target: T1, trypsin (Bos taurus, UniProt P00760); test: Trypsin inhibition assay (Boc-QAR-AMC cleavage); format: biochemical, bovine
T1 construct: purchased Sigma-Aldrich T1426; host or cells: bovine pancreas
T1 sequence (P00760 24-246): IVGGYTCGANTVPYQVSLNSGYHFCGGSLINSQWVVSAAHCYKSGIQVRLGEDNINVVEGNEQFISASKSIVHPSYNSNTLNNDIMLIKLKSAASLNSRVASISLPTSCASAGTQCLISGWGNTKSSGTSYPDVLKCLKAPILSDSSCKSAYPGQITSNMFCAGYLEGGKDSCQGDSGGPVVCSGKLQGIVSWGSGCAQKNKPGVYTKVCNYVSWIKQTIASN
Experimental: (§1) Analytical data are in accor dance with those reported in the literature12.
(§2) (+)-Pinanediol (1- am inobenzyl)boronate h ydrochloride 9g
(§3) A previousl y reported m ethod was used for the first step of the s ynthesis3.
(§4) Phenylm agnesium brom ide 0.7 M (3.1 m L, 2.15 mm ol, 1.2 equiv) was added dropwise at −78°C to a solution of (+)-pinanediol dichloromethyl boronate 24 (470 m g, 1.79 mmol, 1.0 equiv) in anh ydrous dieth yl ether (10 m L). Af ter 15 m in ZnCl2 1 M (1.8 m L, 1.8 mm ol, 1.0 equiv) was slowl y added at this t em perature. T he reaction m ixture was allowed to warm up to room tem perature over 2 hours. The inorganic precipitate was filtered off and the solvents were rem oved in vacuo. The residue was dissolved in pentane, washed with water and dried over Na2SO4. Rem oval of the solvent gives a product which was forwarded to the next step without purification. […]
(§5) Assays f or inh ib ition of tr yp s in activity (T PC K trea ted, f rom bovine pa ncreas; Sigm a-Aldrich T 1426) were based on cleavage of the fluorogenic peptide substrate Boc -QAR-AMC (Sigma- Aldrich B4153). which contains the fluorescent 7- am ino-4-m ethyl c oum arin (AMC) group. […] Cleavage of this bond results in release of AMC and i ncreased fluorescence. […]

[2] = target: T2, α-chymotrypsin (Bos taurus, UniProt P00766); test: α-Chymotrypsin inhibition assay (N-Suc-LLVY-AMC cleavage); format: biochemical; conditions: bovine
T2 construct: purchased Sigma-Aldrich C3142; host or cells: bovine pancreas
Experimental: as §1, §2, §3, §4, §5

[3] = test system: P. falciparum schizonts expressing EXP2-mNeonGreen; test: Time-lapse video microscopy of egress after compound washout; format: cell-based, Plasmodium falciparum; conditions: 10 μM, 30 min monitoring after washout
[4] = test system: PfSUB1-mediated proteolytic processing of SERA5; test: Western blot of SERA5 processing after washout; format: cell-based, Plasmodium falciparum; conditions: 4 h pretreatment then washout
Text: To seek unambiguous confirmation that PfSUB1 is the intracellular target of compound 3j, we examined the effects of the compound on the PfSUB1-mediated proteolytic processing of the established endogenous PfSUB1 substrate SERA5, an abundant parasite PV protein that only becomes accessible to cleavage upon discharge of PfSUB1 into the PV in the minutes leading up to egress and is then released in a processed form into culture supernatants ([6], [11], [12]). […] It was concluded that compound 3j prevents egress and parasite proliferation through direct inhibition of intracellular PfSUB1.
Short-term egress, invasion, and washout assays were performed essentially as described previously ([27], [28], [42]). […] Clarified culture supernatants were assessed for extent of hemoglobin release (a measure of schizont rupture) by absorption spectroscopy at 415 nm as described previously ([28]) or analyzed by Western blot using antibodies against SERA5 ([7], [11]). To quantify generation of new rings, samples of the cultures were fixed with 4% paraformaldehyde/0.02% glutaraldehyde and stained with SYBR Green I (Life Technologies) and then analyzed by flow cytometry on a BD FACSVerse using BD FACSuite software. Data were analyzed using FlowJo software. All cultures were also routinely analyzed by microscopic examination of Giemsa-stained thin films to visually assess parasite morphology.

CC(=O)NC(C(=O)NC(C(=O)NCC(=O)NC(C)B(O)O)C(C)C)C1CCCC1 (centres unmarked) [3j]
effect on trypsin activity ([1]; 10 µM): no detectable effect
IC50 ([1]; bovine trypsin, Boc-QAR-AMC): > 10 µM
IC50 [2]: > 200 µM
egress following washout [3]: no egress occurred over the course of 30 min
SERA5 proteolytic processing [4]: prevented proteolytic processing and release of SERA5
